Experimental data as given in ChEMBL document CHEMBL3045487, “Bioactivity guided isolation of antiinflammatory, analgesic, and antipyretic constituents from the leaves of Pedilanthus tithymaloides (L.)” (Med Chem Res, 2013).

How the values were obtained:
[1] = tested on: Mus musculus; experiment: Toxicity in Swiss albino Mus musculus (mouse) assessed as mortality up to 100 mg/kg, po measured up to 72 hr; assay type: organism-based; set-up: dose 100 mg/kg, route oral; conditions: in vivo
[2] = tested on: Mus musculus; experiment: Anti-inflammatory activity in Swiss albino Mus musculus (mouse) assessed as inhibition of carrageenan-induced paw edema at 10 mg/kg, ip administered 30 min prior to carrageenan-challenge measured after 3 to 4 hr relative to control; assay type: functional; conditions: route intraperitoneal
[3] = tested on: Mus musculus; experiment: Toxicity in Swiss albino Mus musculus (mouse) assessed as lethargy up to 100 mg/kg, po measured up to 24 hr relative to control; assay type: organism-based; set-up: dose 100 mg/kg, route oral; conditions: in vivo
[4] = tested on: Mus musculus; experiment: Toxicity in Swiss albino Mus musculus (mouse) assessed as abdominal constriction up to 100 mg/kg, po measured up to 24 hr relative to control; assay type: organism-based, Abdomen; set-up: dose 100 mg/kg, route oral; conditions: in vivo
[5] = tested on: Mus musculus; experiment: Toxicity in Swiss albino Mus musculus (mouse) assessed as presence of secretions up to 100 mg/kg, po measured up to 24 hr relative to control; assay type: organism-based; set-up: dose 100 mg/kg, route oral; conditions: in vivo
[6] = tested on: Mus musculus; experiment: Toxicity in Swiss albino Mus musculus (mouse) assessed as effect on mobility up to 100 mg/kg, po measured up to 24 hr relative to control; assay type: organism-based; set-up: dose 100 mg/kg, route oral; conditions: in vivo
[7] = tested on: Mus musculus; experiment: Toxicity in Swiss albino Mus musculus (mouse) assessed as weight loss up to 100 mg/kg, po measured up to 24 hr relative to control; assay type: organism-based; set-up: dose 100 mg/kg, route oral; conditions: in vivo
[8] = tested on: Mus musculus; experiment: Toxicity in Swiss albino Mus musculus (mouse) assessed as tremors up to 100 mg/kg, po measured up to 24 hr relative to control; assay type: organism-based; set-up: dose 100 mg/kg, route oral; conditions: in vivo
[9] = tested on: Mus musculus; experiment: Toxicity in Swiss albino Mus musculus (mouse) assessed as convulsions up to 100 mg/kg, po measured up to 24 hr relative to control; assay type: organism-based; set-up: dose 100 mg/kg, route oral; conditions: in vivo
[10] = tested on: Mus musculus; experiment: Toxicity in Swiss albino Mus musculus (mouse) assessed as ataxia up to 100 mg/kg, po measured up to 24 hr relative to control; assay type: organism-based; set-up: dose 100 mg/kg, route oral; conditions: in vivo
[11] = tested on: Mus musculus; experiment: Anti-inflammatory activity in Swiss albino Mus musculus (mouse) assessed as inhibition of cotton pellet-induced granuloma formation at 10 mg/kg, po administered QD for 5 days measured at 1 hr post-last dose relative to control; assay type: functional
[12] = tested on: Mus musculus; experiment: Toxicity in Swiss albino Mus musculus (mouse) assessed as diarrhea up to 100 mg/kg, po measured up to 24 hr relative to control; assay type: organism-based; set-up: dose 100 mg/kg, route oral; conditions: in vivo
[13] = tested on: Rattus norvegicus; experiment: Antipyretic activity in Wistar albino Rattus norvegicus (rat) assessed as brewer's yeast-induced rectal tempeRattus norvegicus (rat)ure at 150 mg/kg, po measured at 23 hr (reference value: 39.1+/- 0.18 degC); assay type: functional
[14] = tested on: Rattus norvegicus; experiment: Antipyretic activity in Wistar albino Rattus norvegicus (rat) assessed as brewer's yeast-induced rectal tempeRattus norvegicus (rat)ure at 150 mg/kg, po measured at 19 hr (reference value: 39.3 +/- 0.11 degC); assay type: functional
[15] = tested on: Rattus norvegicus; experiment: Antipyretic activity in Wistar albino Rattus norvegicus (rat) assessed as brewer's yeast-induced rectal tempeRattus norvegicus (rat)ure at 150 mg/kg, po measured at 20 hr (reference value: 39.1+/- 0.18 degC); assay type: functional
[16] = tested on: Rattus norvegicus; experiment: Antipyretic activity in Wistar albino Rattus norvegicus (rat) assessed as brewer's yeast-induced rectal tempeRattus norvegicus (rat)ure at 150 mg/kg, po measured at 22 hr (reference value: 39.1+/- 0.18 degC); assay type: functional
[17] = tested on: Rattus norvegicus; experiment: Antipyretic activity in Wistar albino Rattus norvegicus (rat) assessed as brewer's yeast-induced rectal tempeRattus norvegicus (rat)ure at 150 mg/kg, po measured at 21 hr (reference value: 39.1+/- 0.18 degC); assay type: functional
[18] = tested on: Rattus norvegicus; experiment: Antipyretic activity in Wistar albino Rattus norvegicus (rat) assessed as brewer's yeast-induced rectal tempeRattus norvegicus (rat)ure at 10 mg/kg, po measured at 20 hr (reference value: 39.1+/- 0.18 degC); assay type: functional
[19] = tested on: Rattus norvegicus; experiment: Antipyretic activity in Wistar albino Rattus norvegicus (rat) assessed as brewer's yeast-induced rectal tempeRattus norvegicus (rat)ure at 10 mg/kg, po measured at 23 hr (reference value: 39.1+/- 0.18 degC); assay type: functional
[20] = tested on: Rattus norvegicus; experiment: Antipyretic activity in Wistar albino Rattus norvegicus (rat) assessed as brewer's yeast-induced rectal temperature at 10 mg/kg, po measured at 22 hr (reference value: 39.1+/- 0.18 degC); assay type: functional
[21] = tested on: Rattus norvegicus; experiment: Antipyretic activity in Wistar albino Rattus norvegicus (rat) assessed as brewer's yeast-induced rectal tempeRattus norvegicus (rat)ure at 10 mg/kg, po measured at 19 hr (reference value: 39.3 +/- 0.11 degC); assay type: functional
[22] = tested on: Rattus norvegicus; experiment: Antipyretic activity in Wistar albino Rattus norvegicus (rat) assessed as brewer's yeast-induced rectal tempeRattus norvegicus (rat)ure at 10 mg/kg, po measured at 21 hr (reference value: 39.1+/- 0.18 degC); assay type: functional
[23] = tested on: Mus musculus; experiment: Antinociceptive activity in Swiss albino Mus musculus (mouse) assessed as inhibition of acetic acid-induced writhing at 10 mg/kg, po administered 1 hr prior to acetic acid-challenge measured up to 20 min relative to control; assay type: functional
[24] = tested on: Mus musculus; experiment: Antinociceptive activity Swiss albino Mus musculus (mouse) assessed as inhibition of formalin-induced paw licking at 10 mg/kg, po administered 30 min prior to formalin-challenge measured up to 5 min relative to control; assay type: functional
[25] = tested on: Mus musculus; experiment: Antinociceptive activity Swiss albino Mus musculus (mouse) assessed as inhibition of formalin-induced paw licking at 10 mg/kg, po administered 30 min prior to formalin-challenge measured from 15 to 30 min relative to control; assay type: functional
[26] = tested on: Mus musculus; experiment: Antinociceptive activity Swiss albino Mus musculus (mouse) assessed as inhibition of formalin-induced paw licking at 10 mg/kg, po administered 60 min prior to formalin-challenge measured from 15 to 30 min relative to control; assay type: functional
[27] = tested on: Mus musculus; experiment: Antinociceptive activity Swiss albino Mus musculus (mouse) assessed as inhibition of formalin-induced paw licking at 10 mg/kg, po administered 60 min prior to formalin-challenge measured up to 5 min relative to control; assay type: functional
[28] = tested on: Mus musculus; experiment: Anti-inflammatory activity in Swiss albino Mus musculus (mouse) assessed as inhibition of carrageenan-induced paw edema at 10 mg/kg, ip administered 30 min prior to carrageenan-challenge measured after 5 hr relative to control; assay type: functional; conditions: route intraperitoneal
[29] = organism: Mus musculus; experiment: animal or person; conditions: Swiss albino, po, read-out: INH
Description: Antinociceptive activity Swiss albino Mus musculus (mouse) assessed as inhibition of formalin-induced paw licking at 5 mg/kg, po administered 30 min prior to formalin-challenge measured up to 5 min relative to control

[30] = organism: Mus musculus; experiment: animal or person; conditions: Swiss albino, po, read-out: INH; remark: listed apart in the source
Description: Antinociceptive activity Swiss albino Mus musculus (mouse) assessed as inhibition of formalin-induced paw licking at 5 mg/kg, po administered 30 min prior to formalin-challenge measured from 15 to 30 min relative to control

| SMILES | Activity [1] | inhibition in vivo at 10 mg/kg [2] | Activity [3] | Activity [4] | Activity [5] | Activity [6] | Activity [7] | Activity [8] | Activity [9] | Activity [10] | inhibition in vivo at 10 mg/kg [11] | Activity [12] | inhibition in vivo at 10 mg/kg [23] | inhibition in vivo at 10 mg/kg [26] | inhibition in vivo at 10 mg/kg [27] | further results |
| --- | --- | --- | --- | --- | --- | --- | --- | --- | --- | --- | --- | --- | --- | --- | --- | --- |
| CCCCCCCCCCCCC(O)COS(=O)(=O)[O-].[Na+] (stereo unspecified) | Non-toxic | 33.3% | Non-toxic | Non-toxic | Non-toxic | Non-toxic | Non-toxic | Non-toxic | Non-toxic | Non-toxic | 12.9% | Non-toxic |  |  |  |  |
| CC(=O)Nc1ccc(O)cc1 [ACETAMINOPHEN] |  |  |  |  |  |  |  |  |  |  |  |  |  |  |  | T [13]: 37.7 °C; T [14]: 39.6 °C; T [15]: 38 °C; T [16]: 37.9 °C; T [17]: 38 °C |
| CC[C@H](CC[C@@H](C)[C@H]1CC[C@H]2[C@@H]3CC=C4C[C@@H](O)CC[C@]4(C)[C@H]3CC[C@]12C)C(C)C [BETA-SITOSTEROL] | Non-toxic |  | Non-toxic | Non-toxic | Non-toxic | Non-toxic | Non-toxic | Non-toxic | Non-toxic | Non-toxic | 30.4% | Non-toxic |  |  |  | T [18]: 38.1 °C; T [19]: 37.9 °C; T [20]: 38 °C; T [21]: 39.6 °C; T [22]: 38.1 °C |
| O=C(O)Cc1ccccc1Nc1c(Cl)cccc1Cl [DICLOFENAC SODIUM] |  |  |  |  |  |  |  |  |  |  |  |  | 90.9% |  |  | inhibition in vivo at 10 mg/kg [24]: 20.1%; inhibition in vivo at 10 mg/kg [25]: 97.6% |
| CC(=O)O[C@H]1CC[C@@H]2[C@](C)(CC[C@H]3[C@@]2(C)CC[C@@]2(C)[C@H]4CC(C)(C)CC[C@]4(C)CC[C@]32C)[C@H]1C [EPIFRIEDELANYL ACETATE] | Non-toxic | 30.6% | Non-toxic | Non-toxic | Non-toxic | Non-toxic | Non-toxic | Non-toxic | Non-toxic | Non-toxic | 24.9% | Non-toxic |  |  |  |  |
| C[C@H]1[C@H](O)CC[C@@H]2[C@]1(C)CC[C@H]1[C@@]2(C)CC[C@@]2(C)[C@H]3CC(C)(C)CC[C@]3(C)CC[C@]12C [FRIEDELANOL] | Non-toxic | 36.1% | Non-toxic | Non-toxic | Non-toxic | Non-toxic | Non-toxic | Non-toxic | Non-toxic | Non-toxic | 29.2% | Non-toxic | 45.8% | 42.9% | 35.7% |  |
| COc1ccc2c(c1)c(CC(=O)O)c(C)n2C(=O)c1ccc(Cl)cc1 [INDOMETHACIN] |  |  |  |  |  |  |  |  |  |  | 45.5% |  |  |  |  | inhibition in vivo at 10 mg/kg [28]: 61.1% |
| O=c1cc(-c2ccc(O)c(O)c2)oc2cc(O)cc(O)c12 [LUTEOLIN] | Non-toxic |  | Non-toxic | Non-toxic | Non-toxic | Non-toxic | Non-toxic | Non-toxic | Non-toxic | Non-toxic | 37% | Non-toxic | 55.4% | 48.6% | 40.3% | inhibition in vivo at 10 mg/kg [28]: 50% |
| CN1CC[C@]23c4c5ccc(O)c4O[C@H]2[C@@H](O)C=C[C@H]3[C@H]1C5 [MORPHINE] |  |  |  |  |  |  |  |  |  |  |  |  |  |  |  | inhibition in vivo at 5 mg/kg [29]: 68%; inhibition in vivo at 5 mg/kg [30]: 100% |
| C[C@H]1[C@H](C)CC[C@]2(C(=O)O)CC[C@]3(C)C(=CC[C@@H]4[C@@]5(C)CC[C@H](O)C(C)(C)[C@@H]5CC[C@]43C)[C@H]12 [URSOLIC ACID] | Non-toxic |  | Non-toxic | Non-toxic | Non-toxic | Non-toxic | Non-toxic | Non-toxic | Non-toxic | Non-toxic | 38.5% | Non-toxic | 50.3% | 61.4% | 43.6% |  |
